Experimental data published in ChEMBL document CHEMBL1201862, “PubChem BioAssay data set” (2004).
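These data come from cells grown in 96-well plates and exposed to compound for 48 hours at five concentrations. GI50: concentration for 50% inhibition of growth.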 Active and inactive are the calls of the source. No stated cut-off is given here; in the data, active = GI50 up to about 1.1 µM and inactive = higher.

Assays:
Assay in all cases: NCI tumour cell line growth inhibition, 48 h
A498 = system: A498
EKVX = system: EKVX
KM12 = system: KM12
M14 = system: M14
MCF7 = system: MCF7
MDA-MB-435 = system: MDA-MB-435
MDA-N = system: MDA-N
NCI-H23 = system: NCI-H23
NCI/ADR-RES = system: NCI/ADR-RES
OVCAR-4 = system: OVCAR-4
PC-3 = system: PC-3
RPMI-8226 = system: RPMI-8226
RXF 393 = system: RXF 393
SF-295 = system: SF-295
SF-539 = system: SF-539
SK-MEL-2 = system: SK-MEL-2
SK-OV-3 = system: SK-OV-3
UO-31 = system: UO-31
BT-549 = system: BT-549
Malme-3M = system: Malme-3M

| Compound | GI50 (A498) | GI50 (EKVX) | GI50 (KM12) | GI50 (M14) | GI50 (MCF7) | GI50 (MDA-MB-435) | GI50 (MDA-N) | GI50 (NCI-H23) | GI50 (NCI/ADR-RES) | GI50 (OVCAR-4) | GI50 (PC-3) | GI50 (RPMI-8226) | GI50 (RXF 393) | GI50 (SF-295) | GI50 (SF-539) | GI50 (SK-MEL-2) | GI50 (SK-OV-3) | GI50 (UO-31) | GI50 (BT-549) | GI50 (Malme-3M) |
| --- | --- | --- | --- | --- | --- | --- | --- | --- | --- | --- | --- | --- | --- | --- | --- | --- | --- | --- | --- | --- |
| CC(=O)c1ccc(NCc2cc(O)ccc2O)cc1 | 36.1 µM (inactive) | 30 µM (inactive) | 14.2 µM (inactive) | 19.1 µM (inactive) | 21.7 µM (inactive) | 21.1 µM (inactive) | 20.4 µM (inactive) | 22.5 µM (inactive) | 36.5 µM (inactive) | 18.5 µM (inactive) | 15.2 µM (inactive) | 5.38 µM (inactive) | 14 µM (inactive) | 17.8 µM (inactive) | 14.5 µM (inactive) | 20.4 µM (inactive) | 23 µM (inactive) | 11.4 µM (inactive) |  |  |
| COC(=O)NC(Nc1ccccn1)(C(F)(F)F)C(F)(F)F | > 100 µM (inactive) | > 100 µM (inactive) | > 100 µM (inactive) | > 100 µM (inactive) | > 100 µM (inactive) | > 100 µM (inactive) | > 100 µM (inactive) | > 100 µM (inactive) | > 100 µM (inactive) |  |  | > 100 µM (inactive) | 29.9 µM (inactive) |  | > 100 µM (inactive) | > 100 µM (inactive) | > 100 µM (inactive) | > 100 µM (inactive) | > 100 µM (inactive) | > 100 µM (inactive) |
| C=C(C)C(=O)OC1CCC2(C)C(CCC3C2CCC2(C)C(c4ccc(=O)oc4)CC4OC432)C1 (stereo not drawn) | 5.02 µM (inactive) | 2.42 µM (inactive) | 6.4 µM (inactive) |  | 2.48 µM (inactive) |  |  | 3.49 µM (inactive) | 6.46 µM (inactive) | 5.75 µM (inactive) |  | 1.6 µM (inactive) | 2.78 µM (inactive) | 5.07 µM (inactive) | 5.35 µM (inactive) | 4.28 µM (inactive) | 20.5 µM (inactive) | 4.75 µM (inactive) |  | 8.13 µM (inactive) |
| CO/N=C(/C(=O)OC)c1ccccc1COc1cccc(C(F)(F)F)c1 | 43.5 µM (inactive) | 7.62 µM (inactive) | 18.8 µM (inactive) | 24.6 µM (inactive) | 25.3 µM (inactive) | 29.3 µM (inactive) | 27.4 µM (inactive) | 27.9 µM (inactive) | 36.9 µM (inactive) | 19.5 µM (inactive) | 22 µM (inactive) | 6.18 µM (inactive) | 26.4 µM (inactive) | 7.23 µM (inactive) | 54.1 µM (inactive) | 36.1 µM (inactive) | 38.9 µM (inactive) | 39.8 µM (inactive) |  | 2.3 µM (inactive) |
| O/N=N\c1nc(-c2cccnc2)nc2ccccc12 | > 100 µM (inactive) | > 100 µM (inactive) | > 100 µM (inactive) | > 100 µM (inactive) | > 100 µM (inactive) |  | > 100 µM (inactive) | > 100 µM (inactive) | > 100 µM (inactive) | > 100 µM (inactive) | > 100 µM (inactive) |  |  | > 100 µM (inactive) | > 100 µM (inactive) |  | > 100 µM (inactive) | 17.5 µM (inactive) | > 100 µM (inactive) |  |
| Cc1ccc(S(=O)(=O)Nc2nnc(S(N)(=O)=O)s2)cc1 | > 100 µM (inactive) | > 100 µM (inactive) | > 100 µM (inactive) | > 100 µM (inactive) | > 100 µM (inactive) | > 100 µM (inactive) | > 100 µM (inactive) | > 100 µM (inactive) | > 100 µM (inactive) | > 100 µM (inactive) |  | > 100 µM (inactive) | > 100 µM (inactive) | > 100 µM (inactive) |  | > 100 µM (inactive) | > 100 µM (inactive) | > 100 µM (inactive) | > 100 µM (inactive) | > 100 µM (inactive) |
| c1cnc2c(c1)Nc1cnncc1S2 | > 100 µM (inactive) | > 100 µM (inactive) | > 100 µM (inactive) | > 100 µM (inactive) | > 100 µM (inactive) | > 100 µM (inactive) | > 100 µM (inactive) | > 100 µM (inactive) | > 100 µM (inactive) | > 100 µM (inactive) | > 100 µM (inactive) | > 100 µM (inactive) | > 100 µM (inactive) | > 100 µM (inactive) | > 100 µM (inactive) | > 100 µM (inactive) | > 100 µM (inactive) | 84.1 µM (inactive) |  | > 100 µM (inactive) |
| COC(=O)CC[N+]1=CCC(c2ccccc2)(c2ccccc2)O1 | > 100 µM (inactive) | > 100 µM (inactive) | > 100 µM (inactive) | > 100 µM (inactive) | > 100 µM (inactive) | 41.8 µM (inactive) | 18.5 µM (inactive) | > 100 µM (inactive) |  | > 100 µM (inactive) | > 100 µM (inactive) |  | > 100 µM (inactive) | > 100 µM (inactive) | > 100 µM (inactive) | > 100 µM (inactive) | > 100 µM (inactive) | > 100 µM (inactive) | > 100 µM (inactive) |  |
| C=CCCCCCCCCC(=O)O [UNDECYLENIC ACID] | 0.798 µM (active) | 116 µM (inactive) | 27.7 µM (inactive) |  | 152 µM (inactive) |  |  | 122 µM (inactive) | 172 µM (inactive) | 132 µM (inactive) |  | 129 µM (inactive) | 93.1 µM (inactive) | 109 µM (inactive) | 110 µM (inactive) | 85.3 µM (inactive) | 138 µM (inactive) | 80.7 µM (inactive) |  | 142 µM (inactive) |
| C/C(=C\CNc1ncnc2c1ncn2CCC(=O)OC(C)(C)C)CO | > 100 µM (inactive) | > 100 µM (inactive) | > 100 µM (inactive) | > 100 µM (inactive) | > 100 µM (inactive) | > 100 µM (inactive) | > 100 µM (inactive) | > 100 µM (inactive) | > 100 µM (inactive) | > 100 µM (inactive) | > 100 µM (inactive) | > 100 µM (inactive) | > 100 µM (inactive) | > 100 µM (inactive) | > 100 µM (inactive) |  | > 100 µM (inactive) | > 100 µM (inactive) |  | > 100 µM (inactive) |
| COc1cc([C@@H]2c3cc(O)c(OC)cc3C=C(C(N)=O)[C@H]2C(N)=O)ccc1O | > 100 µM (inactive) | > 100 µM (inactive) | > 100 µM (inactive) | > 100 µM (inactive) | > 100 µM (inactive) | > 100 µM (inactive) | > 100 µM (inactive) | > 100 µM (inactive) | > 100 µM (inactive) |  | > 100 µM (inactive) | > 100 µM (inactive) | > 100 µM (inactive) | > 100 µM (inactive) | > 100 µM (inactive) |  |  | > 100 µM (inactive) |  | > 100 µM (inactive) |
| CC1=NN(c2nc(N)nc(C(C)Sc3cc(Cl)c(C)cc3S(N)(=O)=O)n2)C(C)(C)C1 (stereo not drawn) | > 10 µM (inactive) | > 10 µM (inactive) | > 10 µM (inactive) | > 10 µM (inactive) | > 10 µM (inactive) |  | > 10 µM (inactive) | > 10 µM (inactive) | > 10 µM (inactive) | > 10 µM (inactive) | > 10 µM (inactive) | > 10 µM (inactive) | > 10 µM (inactive) | > 10 µM (inactive) | > 10 µM (inactive) | > 10 µM (inactive) | > 10 µM (inactive) | > 10 µM (inactive) | > 10 µM (inactive) | > 10 µM (inactive) |
| COC(=O)CC1(O)C(=O)OCc2c1cc1n(c2=O)Cc2c-1nc1ccccc1c2OC (stereo not drawn) | 0.724 µM (active) | 11.1 µM (inactive) | 5.27 µM (inactive) | 0.188 µM (active) |  |  |  | 0.188 µM (active) |  | 4.82 µM (inactive) |  | 0.582 µM (active) | 0.508 µM (active) | 0.151 µM (active) | 0.111 µM (active) | 16.1 µM (inactive) | 0.266 µM (active) | 1.04 µM (active) |  | 3.3 µM (inactive) |
| CC(=O)O/C=C\OC1CCCC1 | > 100 µM (inactive) | > 100 µM (inactive) | > 100 µM (inactive) | > 100 µM (inactive) | > 100 µM (inactive) | > 100 µM (inactive) | > 100 µM (inactive) | > 100 µM (inactive) | > 100 µM (inactive) | > 100 µM (inactive) | > 100 µM (inactive) | > 100 µM (inactive) | > 100 µM (inactive) | > 100 µM (inactive) | > 100 µM (inactive) | > 100 µM (inactive) | > 100 µM (inactive) | > 100 µM (inactive) |  | > 100 µM (inactive) |
| CCOc1ncn(-c2ccc(NC(=S)Nc3cnccn3)cc2)n1 |  | > 10 µM (inactive) | > 10 µM (inactive) | > 10 µM (inactive) | > 10 µM (inactive) | > 10 µM (inactive) | > 10 µM (inactive) | > 10 µM (inactive) | > 10 µM (inactive) | > 10 µM (inactive) |  |  | > 10 µM (inactive) | > 10 µM (inactive) | > 10 µM (inactive) | > 10 µM (inactive) | > 10 µM (inactive) | > 10 µM (inactive) | > 10 µM (inactive) | > 10 µM (inactive) |
| CN(Cc1cnc2nc(N)nc(N)c2n1)c1ccc(C(=O)NC(CCC(=O)O)C(=O)O)cc1C(F)(F)F (stereo not drawn) | < 0.01 µM (active) | > 27 µM (inactive) | < 0.01 µM (active) |  | < 0.01 µM (active) | < 0.01 µM (active) |  | < 0.01 µM (active) | < 0.01 µM (active) | > 100 µM (inactive) | < 0.01 µM (active) | < 0.01 µM (active) | > 100 µM (inactive) | < 0.01 µM (active) | < 0.01 µM (active) | > 100 µM (inactive) | > 100 µM (inactive) | < 0.01 µM (active) |  | > 100 µM (inactive) |
